Assay results published in ChEMBL document CHEMBL3885861, “Open TG-GATES”.

Organism: Rattus norvegicus
Experiment: Open TG-GATES - Regimen: Daily Repeat
Assay type: toxicity, organism-based, Sprague-Dawley
Design: regimen Daily Repeat, gender Male, age 6 weeks
Conditions: in vivo, po, route gavage; for APTT / Bas / Eos / Fbg / Ht / MCHC / MCV / Mono / Neu / PT / RBC / Ret / MCH: tissue Blood; for KIDNEY_L / KIDNEY_R / KIDNEY_TOTAL: tissue Kidney; for ALP / ALT / AST / BUN / CRE / Ca / Cl / DBIL / GLC / IP / K / LDH / Na / RALB / TBIL / TC / TG / TP / gamma-GTP / PL: tissue Plasma
[1] = 60 mg/kg, 72 h, dose level Low, time 3 day
[2] = 60 mg/kg, […], dose level Low, time 7 day
[3] = 60 mg/kg, […], dose level Low, time 14 day
[4] = 60 mg/kg, […], dose level Low, time 28 day

SMILES: CC(=O)Nc1nnc(S(N)(=O)=O)s1 [ACETAZOLAMIDE]
- TERMINAL_BW [1]: 226.3 g
- APTT [1]: 20.3 s
- Bas [1]: 0%
- Eos [1]: 1%
- Fbg [1]: 272.8 mg/dL
- Ht [1]: 39.2%
- MCHC [1]: 34%
- MCV [1]: 60.6 fL
- Mono [1]: 2.6%
- Neu [1]: 15.4%
- PT [1]: 16.8 s
- RBC [1]: 648.4 x10_4/ul
- Ret [1]: 5.3%
- KIDNEY_L [1]: 1 g
- KIDNEY_R [1]: 1 g
- KIDNEY_TOTAL [1]: 2 g
- ALP [1]: 1702 IU/L
- ALT [1]: 42.2 IU/L
- AST [1]: 67.4 IU/L
- BUN [1]: 17 mg/dL
- CRE [1]: 0.2 mg/dL
- Ca [1]: 10.6 mg/dL
- Cl [1]: 106.4 meq/L
- DBIL [1]: 0 mg/dL
- GLC [1]: 185.4 mg/dL
- IP [1]: 7.3 mg/dL
- K [1]: 4.1 meq/L
- LDH [1]: 188.6 IU/L
- Na [1]: 142.8 meq/L
- RALB [1]: 2.9 g/dL
- TBIL [1]: 0 mg/dL
- TC [1]: 73.6 mg/dL
- TG [1]: 137.8 mg/dL
- TP [1]: 5.2 g/dL
- gamma-GTP [1]: 1.4 IU/L
- TERMINAL_BW [2]: 265.9 g
- TERMINAL_BW [3]: 293.1 g
- TERMINAL_BW [4]: 367.2 g
- APTT [2]: 20.2 s
- Bas [2]: 0%
- Eos [2]: 0.8%
- Fbg [2]: 299.4 mg/dL
- Ht [2]: 37%
- MCH [2]: 21.7 pg
- MCV [2]: 61 fL
- Mono [2]: 2.4%
- Neu [2]: 13.4%
- PT [2]: 16.1 s
- RBC [2]: 606.4 x10_4/ul
- Ret [2]: 6.9%
- APTT [3]: 22.7 s
- Bas [3]: 0%
- Eos [3]: 0.8%
- Fbg [3]: 302.4 mg/dL
- MCHC [3]: 35.9%
- MCV [3]: 57.5 fL
- Mono [3]: 2.2%
- Neu [3]: 12.8%
- RBC [3]: 687.6 x10_4/ul
- Ret [3]: 4.3%
- APTT [4]: 23.2 s
- Bas [4]: 0%
- Eos [4]: 1%
- Fbg [4]: 311 mg/dL
- Ht [4]: 42.3%
- MCH [4]: 19.2 pg
- MCHC [4]: 34.3%
- MCV [4]: 56 fL
- Mono [4]: 1.6%
- Neu [4]: 12%
- RBC [4]: 755.4 x10_4/ul
- Ret [4]: 2.9%
- KIDNEY_L [2]: 1.2 g
- KIDNEY_R [2]: 1.3 g
- KIDNEY_TOTAL [2]: 2.5 g
- KIDNEY_L [3]: 1.2 g
- KIDNEY_R [3]: 1.2 g
- KIDNEY_TOTAL [3]: 2.4 g
- KIDNEY_L [4]: 1.4 g
- KIDNEY_R [4]: 1.5 g
- KIDNEY_TOTAL [4]: 2.9 g
- ALP [2]: 1603.6 IU/L
- ALT [2]: 40.6 IU/L
- AST [2]: 69 IU/L
- BUN [2]: 19.6 mg/dL
- CRE [2]: 0.1 mg/dL
- Ca [2]: 10.6 mg/dL
- Cl [2]: 107.4 meq/L
- DBIL [2]: 0 mg/dL
- GLC [2]: 192.2 mg/dL
- IP [2]: 7.2 mg/dL
- K [2]: 4.2 meq/L
- LDH [2]: 140.4 IU/L
- Na [2]: 143.8 meq/L
- PL [2]: 139.6 mg/dL
- RALB [2]: 3 g/dL
- TBIL [2]: 0.002 mg/dL
- TC [2]: 71.8 mg/dL
- TG [2]: 127 mg/dL
- TP [2]: 5.2 g/dL
- gamma-GTP [2]: 1.8 IU/L
- ALP [3]: 1453.4 IU/L
- ALT [3]: 41.2 IU/L
- AST [3]: 65 IU/L
- BUN [3]: 17 mg/dL
- CRE [3]: 0.2 mg/dL
- Ca [3]: 10.5 mg/dL
- Cl [3]: 105.8 meq/L
- DBIL [3]: 0 mg/dL
- GLC [3]: 185.2 mg/dL
- IP [3]: 6.7 mg/dL
- K [3]: 3.8 meq/L
- LDH [3]: 123.6 IU/L
- Na [3]: 144 meq/L
- PL [3]: 140.8 mg/dL
- RALB [3]: 3 g/dL
- TBIL [3]: 0.002 mg/dL
- TC [3]: 65.8 mg/dL
- TG [3]: 152.6 mg/dL
- TP [3]: 5.5 g/dL
- gamma-GTP [3]: 2 IU/L
- ALP [4]: 1253 IU/L
- ALT [4]: 41 IU/L
- AST [4]: 63 IU/L
- BUN [4]: 19 mg/dL
- CRE [4]: 0.2 mg/dL
- Ca [4]: 10.5 mg/dL
- Cl [4]: 106.8 meq/L
- DBIL [4]: 0 mg/dL
- GLC [4]: 184.2 mg/dL
- IP [4]: 6.2 mg/dL
- K [4]: 4 meq/L
- LDH [4]: 129 IU/L
- Na [4]: 143 meq/L
- PL [4]: 142.8 mg/dL
- RALB [4]: 3.1 g/dL
- TBIL [4]: 0.002 mg/dL
- TC [4]: 70.8 mg/dL
- TG [4]: 159.2 mg/dL
- TP [4]: 5.9 g/dL
- gamma-GTP [4]: 2.2 IU/L
- TERMINAL_BW (200 mg/kg, 72 h, dose level Middle, time 3 day): 215.5 g
